Experimental data from patent publication US8912221B2, “Biaryl amide derivatives” (Hoffmann-La Roche Inc., priority 2010, dated 2014).

Legend:
Bradykinin-1 receptor [1] = biological target: T1, Bradykinin-1 receptor (Homo sapiens (Human), UniProt P46663); assay: Receptor Binding Assay; conditions: membranes from CHO-K1 cells overexpressing Bradykinin-1 receptor; 6 nM [3H]Kallidin (Des Arg10, Leu9); read-out: B1R Binding Ki
Experimental: Binding assays were done with membranes from CHO-K1 cells overexpressing Bradykinin-1 receptor.
For binding, Bradykinin-1 receptor antagonist compounds were added in various concentrations in 50 mM Tris pH 7.4, 5 mM MgCl2 together with 6 nM Kallidin (Des Arg^10, Leu^9), [3,4-Prolyl-3,4-^3H(N)] (PerkinElmer, 1.85-4.44 TBq/mmol) to 40 μg membrane protein containing approximately 1 fmol Bradykinin-1 receptor and incubated for 15 min at 27° C. To determine non-specific binding 10 μM Lys-(Des-Arg^9)-Bradykinin (Bachem) was added. Membranes were harvested through GF/B (glass fiber filter; PerkinElmer) plates, equilibrated with 0.5% polyethylenimine, air dried at 50° C. for 2 hr. Radioactivity was determined by counting in a topcounter (NXT Packard). Specific binding was defined as total binding minus nonspecific binding and typically represents about 90-95% of the total binding. Antagonist activity is expressed as Ki: inhibitor concentration required for 50% inhibition of specific binding corrected for the concentration of the radioligand.

Bradykinin-1 receptor [2] = biological target: T1, Bradykinin-1 receptor; assay: Calcium Mobilization Assay; type: cell-based; conditions: GeneBLAzer Bradykinin (B1)-NFAT-bla CHO-K1 cells; antagonist activity, FLIPR; read-out: Ca mobilization IC50
Experimental: Calcium Mobilization Assay
GeneBLAzer® Bradykinin (B1)-NFAT-bla CHO-K1 cells (from Invitrogen) stably overexpressing the human bradykinin 1 receptor were cultured in DMEM (high glucose) supplemented with 10% dialysed FBS, 1% NEAA (non essential amino acids) 1% penicillin/streptomycin, 1% G418 and 0.1 mg/ml zeocin.
For the assay cells were grown overnight in 384-well black clear flat bottom polystyrene plates (Costar) at 37° C. at 5% CO2. After washing with DMEM, 20 mM Hepes, 2.5 mM probenecid, 0.1% BSA (DMEM assay buffer) cells were loaded with 4 μM Fluo-4 in the same DMEM assay buffer for 2 hours at 30° C. Excess dye was removed and cells were washed with DMEM assay buffer. 384-well compound plates were prepared with DMEM assay buffer/0.5% DMSO with or without various concentrations of test compounds. Usually compounds were tested for agonist and antagonist activity.
Test compounds were added to the assay plate and agonist activity was monitored as fluorescence for 80 seconds with a FLIPR (488 nm excitation; 510-570 nm emission; Molecular Devices). […] Increases in intracellular calcium are reported as maximum fluorescence after agonist exposure minus basal fluorescence before exposure. Antagonist activity is indicated as inhibitor concentration required for 50% inhibition of specific calcium increases.

T1 sequence (P46663 whole entry): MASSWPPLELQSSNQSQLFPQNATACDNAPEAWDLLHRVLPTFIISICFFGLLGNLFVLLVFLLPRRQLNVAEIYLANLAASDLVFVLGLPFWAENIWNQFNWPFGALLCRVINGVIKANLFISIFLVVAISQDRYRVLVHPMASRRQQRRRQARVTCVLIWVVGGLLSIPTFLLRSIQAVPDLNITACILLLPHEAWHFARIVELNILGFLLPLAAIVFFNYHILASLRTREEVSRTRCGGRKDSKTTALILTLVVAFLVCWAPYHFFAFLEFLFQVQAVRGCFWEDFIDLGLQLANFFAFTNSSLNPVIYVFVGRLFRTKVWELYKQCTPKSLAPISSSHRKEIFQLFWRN

Ki (Bradykinin-1 receptor [1]) | IC50 (Bradykinin-1 receptor [2]) | Structure (SMILES)
4.7 nM | 3.3 nM | C[C@@H](NC(=O)C1(NC(=O)c2ccno2)COC1)c1ncc(-c2cc(Cl)cc(Cl)c2OCC(F)F)cc1F [Example 10, Isoxazole-5-carboxylic acid [3-((R)-1-{5-[3,5-dichloro-2-(2,2-difluoro-ethoxy)-phenyl]-3-fluoro-pyridin-2-yl}-ethylcarbamoyl)-oxetan-3-yl]-amide]
2.6 nM | 0.8 nM | C[C@@H](NC(=O)C1(NC(=O)c2cncnc2)COC1)c1ncc(-c2cc(Cl)cc(Cl)c2OCC(F)F)cc1F [Example 11, Pyrimidine-5-carboxylic acid [3-((R)-1-{5-[3,5-dichloro-2-(2,2-difluoro-ethoxy)-phenyl]-3-fluoro-pyridin-2-yl}-ethylcarbamoyl)-oxetan-3-yl]-amide]
0.8 nM | 0.1 nM | COC(=O)c1c(Cl)cccc1-c1ccc([C@@H](C)NC(=O)C2(NC(=O)c3ccno3)COC2)c(F)c1 [Example 12, 3-Chloro-3′-fluoro-4′-[(R)-1-({3-[(isoxazole-5-carbonyl)-amino]-oxetane-3-carbonyl}-amino)-ethyl]-biphenyl-2-carboxylic acid methyl ester]
1 nM | 0.04 nM | COC(=O)c1c(Cl)cccc1-c1ccc([C@@H](C)NC(=O)C2(NC(=O)c3cc(C)no3)COC2)c(F)c1 [Example 13, 3-Chloro-3′-fluoro-4′-[(R)-1-({3-[(3-methyl-isoxazole-5-carbonyl)-amino]-oxetane-3-carbonyl}-amino)-ethyl]-biphenyl-2-carboxylic acid methyl ester]
1.4 nM | 0.2 nM | COc1cc(C(=O)NC2(C(=O)N[C@H](C)c3ncc(-c4cc(Cl)cc(F)c4-c4noc(C)n4)cc3F)COC2)on1 [Example 14, 3-Methoxy-isoxazole-5-carboxylic acid [3-((R)-1-{5-[5-chloro-3-fluoro-2-(5-methyl-[1,2,4]oxadiazol-3-yl)-phenyl]-3-fluoro-pyridin-2-yl}-ethylcarbamoyl)-oxetan-3-yl]-amide]
1.1 nM | 0.1 nM | COc1ncc(C(=O)NC2(C(=O)N[C@H](C)c3ncc(-c4cc(Cl)cc(F)c4-c4noc(C)n4)cc3F)COC2)cn1 [Example 15, 2-Methoxy-pyrimidine-5-carboxylic acid [3-((R)-1-{5-[5-chloro-3-fluoro-2-(5-methyl-[1,2,4]oxadiazol-3-yl)-phenyl]-3-fluoro-pyridin-2-yl}-ethylcarbamoyl)-oxetan-3-yl]-amide]
1.6 nM | 0.4 nM | Cc1nc(-c2c(F)cc(Cl)cc2-c2cnc([C@@H](C)NC(=O)C3(NC(=O)c4snnc4C)COC3)c(F)c2)no1 [Example 16, 4-Methyl-[1,2,3]thiadiazole-5-carboxylic acid [3-((R)-1-{5-[5-chloro-3-fluoro-2-(5-methyl-[1,2,4]oxadiazol-3-yl)-phenyl]-3-fluoro-pyridin-2-yl}-ethylcarbamoyl)-oxetan-3-yl]-amide]
25 nM | 26.6 nM | COCC(=O)NC1(C(=O)N[C@H](C)c2ncc(-c3cc(Cl)cc(F)c3-c3noc(C)n3)cc2F)COC1 [Example 17, 3-(2-Methoxy-acetylamino)-oxetane-3-carboxylic acid ((R)-1-{5-[5-chloro-3-fluoro-2-(5-methyl-[1,2,4]oxadiazol-3-yl)-phenyl]-3-fluoro-pyridin-2-yl}-ethyl)-amide]
3 nM | 1.1 nM | COc1cc(C(=O)NC2(C(=O)N[C@H](C)c3ncc(-c4cc(Cl)cc(Cl)c4OCC(F)F)cc3F)COC2)on1 [Example 18, 3-Methoxy-isoxazole-5-carboxylic acid [3-((R)-1-{5-[3,5-dichloro-2-(2,2-difluoro-ethoxy)-phenyl]-3-fluoro-pyridin-2-yl}-ethylcarbamoyl)-oxetan-3-yl]-amide]
5.1 nM | 1.2 nM | Cc1nc(-c2c(F)cc(Cl)cc2-c2cnc([C@@H](C)NC(=O)C3(NC(=O)c4nnc(C)o4)COC3)c(F)c2)no1 [Example 19, 5-Methyl-[1,3,4]oxadiazole-2-carboxylic acid [3-((R)-1-{5-[5-chloro-3-fluoro-2-(5-methyl-[1,2,4]oxadiazol-3-yl)-phenyl]-3-fluoro-pyridin-2-yl}-ethylcarbamoyl)-oxetan-3-yl]-amide]
1.6 nM | 0.4 nM | Cc1cc(C(=O)NC2(C(=O)N[C@H](C)c3ncc(-c4cc(Cl)cc(F)c4-c4nnn(C)n4)cc3F)COC2)on1 [Example 20, 3-Methyl-isoxazole-5-carboxylic acid [3-((R)-1-{5-[5-chloro-3-fluoro-2-(2-methyl-2H-tetrazol-5-yl)-phenyl]-3-fluoro-pyridin-2-yl}-ethylcarbamoyl)-oxetan-3-yl]-amide]
4.3 nM | 1 nM | C[C@@H](NC(=O)C1(NC(=O)C(F)(F)F)COC1)c1ncc(-c2cc(Cl)cc(F)c2-c2nnn(C)n2)cc1F [Example 21, 3-(2,2,2-Trifluoro-acetylamino)-oxetane-3-carboxylic acid ((R)-1-{5-[5-chloro-3-fluoro-2-(2-methyl-2H-tetrazol-5-yl)-phenyl]-3-fluoro-pyridin-2-yl}-ethyl)-amide]
1.7 nM | 0.5 nM | C[C@@H](NC(=O)C1(NC(=O)C(F)(F)F)COC1)c1ccc(-c2cc(Cl)cc(F)c2-c2nnn(C)n2)cc1F [Example 22, 3-(2,2,2-Trifluoro-acetylamino)-oxetane-3-carboxylic acid {(R)-1-[5′-chloro-3,3′-difluoro-2′-(2-methyl-2H-tetrazol-5-yl)-biphenyl-4-yl]-ethyl}-amide]
1 nM | 0.1 nM | Cc1cc(C(=O)NC2(C(=O)N[C@H](C)c3ccc(-c4cc(Cl)cc(F)c4-c4nnn(C)n4)cc3F)COC2)on1 [Example 23, 3-Methyl-isoxazole-5-carboxylic acid (3-{(R)-1-[5′-chloro-3,3′-difluoro-2′-(2-methyl-2H-tetrazol-5-yl)-biphenyl-4-yl]-ethylcarbamoyl}-oxetan-3-yl)-amide]
1.2 nM | 0.1 nM | Cc1cc(C(=O)NC2(C(=O)N[C@H](C)c3ccc(-c4cc(Cl)cc(F)c4-c4noc(C)n4)cc3F)COC2)on1 [Example 24, 3-Methyl-isoxazole-5-carboxylic acid (3-{(R)-1-[5′-chloro-3,3′-difluoro-2′-(5-methyl-[1,2,4]oxadiazol-3-yl)-biphenyl-4-yl]-ethylcarbamoyl}-oxetan-3-yl)-amide]
1 nM | 0.4 nM | Cc1nc(-c2c(F)cc(Cl)cc2-c2cnc([C@@H](C)NC(=O)C3(NC(=O)c4ccnnc4)COC3)c(F)c2)no1 [Example 25, Pyridazine-4-carboxylic acid [3-((R)-1-{5-[5-chloro-3-fluoro-2-(5-methyl-[1,2,4]oxadiazol-3-yl)-phenyl]-3-fluoro-pyridin-2-yl}-ethylcarbamoyl)-oxetan-3-yl]-amide]
503 nM | 490 nM | Cc1nc(-c2c(F)cc(Cl)cc2-c2cnc([C@@H](C)NC(=O)C3(NC(=O)c4nccn4C)COC3)c(F)c2)no1 [Example 26, 1-Methyl-1H-imidazole-2-carboxylic acid [3-((R)-1-{5-[5-chloro-3-fluoro-2-(5-methyl-[1,2,4]oxadiazol-3-yl)-phenyl]-3-fluoro-pyridin-2-yl}-ethylcarbamoyl)-oxetan-3-yl]-amide]
